In ChEMBL document CHEMBL3137667, “[Drug-induced liver injury; fourteenth updated edition of the bibliographic database of liver injuries and related drugs]” (Gastroenterol Clin Biol, 2004):

What was measured:
[1] = Highest frequency of moderate liver toxicity observed during clinical trials, expressed as a percentage. [column '% BIOL' in source]; settings: human
[2] = Highest frequency of acute liver toxicity observed during clinical trials, expressed as a percentage. [column '% AIGUE' in source]; settings: human
[3] = Presence of at least one case with successful reintroduction. [column 'REINT' in source]; settings: human
[4] = Times to onset, minimal and maximal, observed in the indexed observations. [column 'DELAI' in source]; settings: human
[5] = Proposed mechanism(s) of liver damage. [column 'MEC' in source]; settings: human
[6] = human, serum
[7] = human, serum; remark: listed apart in the source
[8] = human
[9] = human; remark: listed apart in the source
[10] = human; remark: listed apart in the source
[11] = human, serum, 4383 h
[12] = human; remark: listed apart in the source
[13] = human; remark: listed apart in the source
[14] = human; remark: listed apart in the source
[15] = human; remark: listed apart in the source
[16] = human; remark: listed apart in the source
[17] = human; remark: listed apart in the source
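Throughout, for Hepatotoxicity (association with vascular disease): count of indexed literature references reporting vascular liver injury in humans, e.g. peliosis hepatitis, hepatic veno-occlusive disease or Budd-Chiari syndrome.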
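Throughout, for Hepatotoxicity (benign tumour): value is a count of indexed literature references citing a benign tumour confirmed by histopathology.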
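Throughout, for Hepatotoxicity (choleostasis): human cholestatic liver injury, shown by histopathology or by peak ALT or AST elevation over alkaline phosphatase ratio below 2, value counts indexed literature reports.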
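Throughout, for Hepatotoxicity (chronic liver disease): chronic liver injury confirmed by histopathology or persistently raised serum aminotransferase activity beyond 6 months, value given as the count of indexed literature references.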
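Throughout, for Hepatotoxicity (cirrhosis): value is a count of indexed literature references reporting cirrhosis confirmed by histopathology.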
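Throughout, for Hepatotoxicity (cytolytic): human cytolytic liver injury, shown by histopathology or by a ratio above 5 of peak ALT or AST elevation to alkaline phosphatase elevation, value counts indexed references.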
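Throughout, for Hepatotoxicity (granulomatous hepatitis): value is a count of indexed literature references reporting granulomatous liver disease confirmed by histopathology.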
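Throughout, for Hepatotoxicity (malignant tumour): malignant tumour confirmed by histopathology, value gives the count of indexed literature references reporting it.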
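Throughout, for Hepatotoxicity (severe hepatitis): human clinical data: severe hepatitis, meaning potentially life-threatening liver failure or clinically observed cases, the value counts how many indexed literature references report it.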
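Throughout, for Hepatotoxicity (steatosis): steatosis confirmed by histopathology, value is the count of indexed references.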

In the case of `CC(C(=O)O)c1ccc(N2CC=CC2)c(Cl)c1` (stereo not given) [PIRPROFEN], the “Hepatotoxicity (moderate)” value [1] is reported as 2.8%, the “Hepatotoxicity (acute)” value [2] is reported as 0.3% and the “Hepatotoxicity (successful reintroduction)” value [3] is reported as “yes”. For the same compound, the “Hepatotoxicity (time to onset)” value [4] was 1 week - 1 year, the “Hepatotoxicity (mechanism)” value [5] was “Toxic Metabolite” and the “Hepatotoxicity (moderate)” value [6] was 5. The “Hepatotoxicity (acute)” value [7] was 9, the “Hepatotoxicity (cytolytic)” value [8] was 9 and the “Hepatotoxicity (choleostasis)” value [9] was 2. The “Hepatotoxicity (severe hepatitis)” value [10] was 8, the “Hepatotoxicity (chronic liver disease)” value [11] was 1 and the “Hepatotoxicity (cirrhosis)” value [12] was 1. For the same compound, the “Hepatotoxicity (granulomatous hepatitis)” value [13] was 0, the “Hepatotoxicity (association with vascular disease)” value [14] was 0 and the “Hepatotoxicity (steatosis)” value [15] was 2. For the same compound, the “Hepatotoxicity (malignant tumour)” value [16] was 0 and the “Hepatotoxicity (benign tumour)” value [17] was 0.
For `Cc1nc2ccc(CN(C)c3ccc(C(=O)N[C@@H](CCC(=O)O)C(=O)O)s3)cc2c(=O)[nH]1` [RALTITREXED], the “Hepatotoxicity (moderate)” value [1] was 100%, the “Hepatotoxicity (acute)” value [2] was 21.9% and the “Hepatotoxicity (successful reintroduction)” value [3] was “yes”. The “Hepatotoxicity (time to onset)” value [4] was 2 weeks - 17 weeks, the “Hepatotoxicity (mechanism)” value [5] was “Dose-dependant” and the “Hepatotoxicity (moderate)” value [6] was 20. The “Hepatotoxicity (acute)” value [7] was 8, the “Hepatotoxicity (cytolytic)” value [8] was 7 and the “Hepatotoxicity (choleostasis)” value [9] was 1. The “Hepatotoxicity (severe hepatitis)” value [10] was 3, the “Hepatotoxicity (chronic liver disease)” value [11] was 0 and the “Hepatotoxicity (cirrhosis)” value [12] was 1. For the same compound, the “Hepatotoxicity (granulomatous hepatitis)” value [13] was 0, the “Hepatotoxicity (association with vascular disease)” value [14] was 0 and the “Hepatotoxicity (steatosis)” value [15] was 1. For the same compound, the “Hepatotoxicity (malignant tumour)” value [16] was 0 and the “Hepatotoxicity (benign tumour)” value [17] was 0.
In the case of `Cn1c(=O)c2[nH]cnc2n(C)c1=O.O` [THEOPHYLLINE], the “Hepatotoxicity (moderate)” value [1] is reported as 55.6%, the “Hepatotoxicity (acute)” value [2] is reported as 0% and the “Hepatotoxicity (successful reintroduction)” value [3] is reported as “yes”. The “Hepatotoxicity (time to onset)” value [4] was 4 days - 11 days, the “Hepatotoxicity (mechanism)” value [5] was “Dose-dependant” and the “Hepatotoxicity (moderate)” value [6] was 2. The “Hepatotoxicity (acute)” value [7] was 1, the “Hepatotoxicity (cytolytic)” value [8] was 1 and the “Hepatotoxicity (choleostasis)” value [9] was 0. For the same compound, the “Hepatotoxicity (severe hepatitis)” value [10] was 0, the “Hepatotoxicity (chronic liver disease)” value [11] was 0 and the “Hepatotoxicity (cirrhosis)” value [12] was 0. The “Hepatotoxicity (granulomatous hepatitis)” value [13] was 0, the “Hepatotoxicity (association with vascular disease)” value [14] was 0 and the “Hepatotoxicity (steatosis)” value [15] was 0. The “Hepatotoxicity (malignant tumour)” value [16] was 0 and the “Hepatotoxicity (benign tumour)” value [17] was 0.
For `O=C(O)c1cccnc1Nc1cccc(C(F)(F)F)c1` [NIFLUMIC ACID], the “Hepatotoxicity (moderate)” value [1] was 0%, the “Hepatotoxicity (acute)” value [2] was 0% and the “Hepatotoxicity (successful reintroduction)” value [3] was “yes”. The “Hepatotoxicity (time to onset)” value [4] was 3 days - 3.5 weeks, the “Hepatotoxicity (mechanism)” value [5] was “Allergic” and the “Hepatotoxicity (moderate)” value [6] was 0. For the same compound, the “Hepatotoxicity (acute)” value [7] was 4, the “Hepatotoxicity (cytolytic)” value [8] was 4 and the “Hepatotoxicity (choleostasis)” value [9] was 1. For the same compound, the “Hepatotoxicity (severe hepatitis)” value [10] was 2, the “Hepatotoxicity (chronic liver disease)” value [11] was 0 and the “Hepatotoxicity (cirrhosis)” value [12] was 0. The “Hepatotoxicity (granulomatous hepatitis)” value [13] was 0, the “Hepatotoxicity (association with vascular disease)” value [14] was 0 and the “Hepatotoxicity (steatosis)” value [15] was 0. The “Hepatotoxicity (malignant tumour)” value [16] was 0 and the “Hepatotoxicity (benign tumour)” value [17] was 0.
In the case of `O=C(O)COc1nn(Cc2ccccc2)c2ccccc12` [BENDAZAC], the “Hepatotoxicity (moderate)” value ([1]; Liver) is reported as 0%, the “Hepatotoxicity (acute)” value ([2]; Liver) is reported as 0% and the “Hepatotoxicity (successful reintroduction)” value [3] is reported as “yes”. For the same compound, the “Hepatotoxicity (time to onset)” value [4] was 3 weeks - 3.5 years, the “Hepatotoxicity (mechanism)” value ([5]; Liver) was “Allergic” and the “Hepatotoxicity (moderate)” value [6] was 0. The “Hepatotoxicity (acute)” value [7] was 6, the “Hepatotoxicity (cytolytic)” value ([8]; Liver) was 3 and the “Hepatotoxicity (choleostasis)” value ([9]; Liver) was 2. For the same compound, the “Hepatotoxicity (severe hepatitis)” value ([10]; Liver) was 0, the “Hepatotoxicity (chronic liver disease)” value [11] was 0 and the “Hepatotoxicity (cirrhosis)” value [12] was 0. The “Hepatotoxicity (granulomatous hepatitis)” value ([13]; Liver) was 0, the “Hepatotoxicity (association with vascular disease)” value [14] was 0 and the “Hepatotoxicity (steatosis)” value [15] was 0. For the same compound, the “Hepatotoxicity (malignant tumour)” value [16] was 0 and the “Hepatotoxicity (benign tumour)” value [17] was 0.
In the case of `NC(=O)NO` [HYDROXYUREA], the “Hepatotoxicity (moderate)” value [1] is reported as 12.5%, the “Hepatotoxicity (acute)” value [2] is reported as 0% and the “Hepatotoxicity (successful reintroduction)” value [3] is reported as “yes”. The “Hepatotoxicity (time to onset)” value [4] was 1 day - 3 months, the “Hepatotoxicity (mechanism)” value [5] was “Allergic” and the “Hepatotoxicity (moderate)” value [6] was 5. For the same compound, the “Hepatotoxicity (acute)” value [7] was 4, the “Hepatotoxicity (cytolytic)” value [8] was 3 and the “Hepatotoxicity (choleostasis)” value [9] was 1. For the same compound, the “Hepatotoxicity (severe hepatitis)” value [10] was 1, the “Hepatotoxicity (chronic liver disease)” value [11] was 0 and the “Hepatotoxicity (cirrhosis)” value [12] was 0. For the same compound, the “Hepatotoxicity (granulomatous hepatitis)” value [13] was 2, the “Hepatotoxicity (association with vascular disease)” value [14] was 0 and the “Hepatotoxicity (steatosis)” value [15] was 0. The “Hepatotoxicity (malignant tumour)” value [16] was 0 and the “Hepatotoxicity (benign tumour)” value [17] was 0.
In the case of `CCc1nn(CCCN2CCN(c3cccc(Cl)c3)CC2)c(=O)n1CCOc1ccccc1` [NEFAZODONE], the “Hepatotoxicity (moderate)” value [1] is reported as 0%, the “Hepatotoxicity (acute)” value [2] is reported as 0% and the “Hepatotoxicity (successful reintroduction)” value [3] is reported as “yes”. For the same compound, the “Hepatotoxicity (time to onset)” value [4] was 1 week - 2 years, the “Hepatotoxicity (mechanism)” value [5] was “Allergic” and the “Hepatotoxicity (moderate)” value [6] was 4. The “Hepatotoxicity (acute)” value [7] was 16, the “Hepatotoxicity (cytolytic)” value [8] was 14 and the “Hepatotoxicity (choleostasis)” value [9] was 0. The “Hepatotoxicity (severe hepatitis)” value [10] was 11, the “Hepatotoxicity (chronic liver disease)” value [11] was 0 and the “Hepatotoxicity (cirrhosis)” value [12] was 0. For the same compound, the “Hepatotoxicity (granulomatous hepatitis)” value [13] was 0, the “Hepatotoxicity (association with vascular disease)” value [14] was 0 and the “Hepatotoxicity (steatosis)” value [15] was 0. For the same compound, the “Hepatotoxicity (malignant tumour)” value [16] was 0 and the “Hepatotoxicity (benign tumour)” value [17] was 0.
In the case of `O=C(CCCCC(=O)Nc1c(I)cc(I)c(C(=O)O)c1I)Nc1c(I)cc(I)c(C(=O)O)c1I` [IODIPAMIDE], the “Hepatotoxicity (moderate)” value [1] is reported as 18.3%, the “Hepatotoxicity (acute)” value [2] is reported as 0% and the “Hepatotoxicity (successful reintroduction)” value [3] is reported as “yes”. The “Hepatotoxicity (time to onset)” value [4] was 3 days - 1 week, the “Hepatotoxicity (mechanism)” value [5] was “Dose-dependant” and the “Hepatotoxicity (moderate)” value [6] was 2. For the same compound, the “Hepatotoxicity (acute)” value [7] was 6, the “Hepatotoxicity (cytolytic)” value [8] was 6 and the “Hepatotoxicity (choleostasis)” value [9] was 0. For the same compound, the “Hepatotoxicity (severe hepatitis)” value [10] was 0, the “Hepatotoxicity (chronic liver disease)” value [11] was 0 and the “Hepatotoxicity (cirrhosis)” value [12] was 0. The “Hepatotoxicity (granulomatous hepatitis)” value [13] was 0, the “Hepatotoxicity (association with vascular disease)” value [14] was 0 and the “Hepatotoxicity (steatosis)” value [15] was 1. The “Hepatotoxicity (malignant tumour)” value [16] was 0 and the “Hepatotoxicity (benign tumour)” value [17] was 0.
For `CO[C@]12CC[C@@]3(C[C@@H]1[C@](C)(O)C(C)(C)C)[C@H]1Cc4ccc(O)c5c4[C@@]3(CCN1CC1CC1)[C@H]2O5` [BUPRENORPHINE], the “Hepatotoxicity (moderate)” value [1] was 71%, the “Hepatotoxicity (acute)” value [2] was 0% and the “Hepatotoxicity (successful reintroduction)” value [3] was “yes”. The “Hepatotoxicity (time to onset)” value [4] was 2 days - 3 months, the “Hepatotoxicity (mechanism)” value [5] was “Allergic, Overdose” and the “Hepatotoxicity (moderate)” value [6] was 1. For the same compound, the “Hepatotoxicity (acute)” value [7] was 3, the “Hepatotoxicity (cytolytic)” value [8] was 2 and the “Hepatotoxicity (choleostasis)” value [9] was 0. For the same compound, the “Hepatotoxicity (severe hepatitis)” value [10] was 2, the “Hepatotoxicity (chronic liver disease)” value [11] was 0 and the “Hepatotoxicity (cirrhosis)” value [12] was 0. The “Hepatotoxicity (granulomatous hepatitis)” value [13] was 0, the “Hepatotoxicity (association with vascular disease)” value [14] was 0 and the “Hepatotoxicity (steatosis)” value [15] was 0. For the same compound, the “Hepatotoxicity (malignant tumour)” value [16] was 0 and the “Hepatotoxicity (benign tumour)” value [17] was 0.
For `CC[C@@H](CO)NCCN[C@@H](CC)CO` [ETHAMBUTOL], the “Hepatotoxicity (moderate)” value [1] was 0%, the “Hepatotoxicity (acute)” value [2] was 0% and the “Hepatotoxicity (successful reintroduction)” value [3] was “yes”. For the same compound, the “Hepatotoxicity (time to onset)” value [4] was 1.5 months - 2 months, the “Hepatotoxicity (mechanism)” value [5] was “Allergic” and the “Hepatotoxicity (moderate)” value [6] was 1. For the same compound, the “Hepatotoxicity (acute)” value [7] was 6, the “Hepatotoxicity (cytolytic)” value [8] was 1 and the “Hepatotoxicity (choleostasis)” value [9] was 1. The “Hepatotoxicity (severe hepatitis)” value [10] was 0, the “Hepatotoxicity (chronic liver disease)” value [11] was 0 and the “Hepatotoxicity (cirrhosis)” value [12] was 0. For the same compound, the “Hepatotoxicity (granulomatous hepatitis)” value [13] was 0, the “Hepatotoxicity (association with vascular disease)” value [14] was 0 and the “Hepatotoxicity (steatosis)” value [15] was 0. For the same compound, the “Hepatotoxicity (malignant tumour)” value [16] was 0 and the “Hepatotoxicity (benign tumour)” value [17] was 0.
